# Data reported in patent US20240197897A1, “HETEROTANDEM BICYCLIC PEPTIDE COMPLEXES” (Bicycle Tx Limited, priority 2021, published 2024).
# Where two headings read alike, the source gives them in different places. Starred links: 1 amine or outer side, 2 acyl side, 3 side chain; linkers in the order of their positions; H or OH if unused. Positions of bridges follow the written chain, without caps; N, C: chain ends. Non-standard residues stand in square brackets, D forms with d. Residues, ends and D or L forms follow the SMILES beside them. Chains are numbered I, II in the order given. No end group written: not given here. *: point of attachment. X3 = O=C(CCOCCOCCOCCOCCOCCOCCOCCOCCOCCOCCOCCOCCOCCOCCOCCOCCOCCOCCOCCOCCOCCOCCOCCOCCn1cc(CCC(=O)[*:2])nn1)[*:1]; TBMT = 2,4,6-tris(bromomethyl)-s-triazine, molecular scaffold, C(c1nc(C[*:2])nc(C[*:3])n1)[*:1]; X1 = O=C(CCOCCOCCOCCN(CCOCCOCCOCCn1cc(CCC(=O)[*:2])nn1)CCOCCOCCOCCn1cc(CCC(=O)[*:3])nn1)[*:1]; TATA = O=C(CC[*:1])N1CN(C(=O)CC[*:2])CN(C(=O)CC[*:3])C1; Hyp = O=C(O)[C@@H]1C[C@@H](O)CN1; hArg = N=C(N)NCCCC[C@H](N)C(=O)O; Cba = N[C@@H](CC1CCC1)C(=O)O; Pent4ynoyl = C#CCCC(=O)*
# How the values were obtained:
# HT1080-luc cells = assay: NK cytotoxicity assay (NK:HT1080-luc co-culture, luciferase readout); type: cell-based, human; conditions: for effect on tumor cell killing by NK cells, in words: in comparison to NK:HT1080-luc co-culture without heterotandem complex (NK-TICA)
# Procedure: (§1) Heterotandem bicyclic peptide complexes were evaluated for NK functional readouts (cytotoxicity and cytokine secretion) in NK-tumor cell line co-cultures.
# (§2) NK cells were isolated using a negative isolation kit (STEMCELL™ Technologies 17955) from the total PBMC population purified from whole blood. NK cell pellet was then resuspended in DMEM medium (Corning™ 10-013-CV) with 10% heat-inactivated fetal bovine serum (FBS; Corning® 35-011-CV), 10 mM HEPES (Gibco™ 15-630-080), and 1% Penicillin Streptomycin (Corning™ 30-002-CI), and 50 IU/mL human IL-2 (Miltenyi Biotec® 130-097-748), at a concentration of 4×10^5 cells/mL. For the NK cell cytotoxicity assays, 50 μL (2×10^4) of cell suspension was plated in the 96-well plate (Grenier® Bio One™ 655090) containing 50 μl (4×10^3) HT1080-luc cells (ATCC® CCL-121-luc2) in DMEM (Gibco™ 11875-093; with L-glutamine) with 10% heat-inactivated fetal bovine serum (FBS; Corning® 35-011-CV), 10 mM HEPES (Gibco™ 15-630-080), and 1% Penicillin Streptomycin (Corning™ 30-002-CI). […] The plates were then incubated for 24 hours at 37° C., 5% CO2. Post-incubation, plates was centrifuged at 250×g for 5 minutes and 100 μl supernatant discarded. Samples were then incubated 10 minutes with 50 μl Bright-Glo™ Luciferase Assay system (Promega™ E2620). Luminescence upon excitation at 570 nm was read using a CLARIOstar® plate-reader with MARS Data Analysis Software™. Data was fit to a four-parameter non-linear regression in GraphPad Prism™ 8.0.2 to generate an EC50 value.
# [1] = as above; type: cell-based, human; conditions: NK:HT1080-luc co-culture, 24 hours, read-out: EC50 NK cytotoxicity (tumor cell killing)
# Procedure: as §1, §2
# [2] = four-parameter logistic regression, FIGS. 2-4, 6-8, 10
Compound,"effect on tumor cell killing by NK cells, in words (HT1080-luc cells)","EC50 [1, 2] [nM]","EC50 (HT1080-luc cells; NK:HT1080-luc co-culture, 24 hours, four-parameter logistic regression, FIGS. 2-4, 6-8, 10, read-out: EC50 NK cytotoxicity (tumor cell killing)) [nM]",EC50 ([1]; FIG. 9) [nM]
CC[C@H](C)[C@@H]1NC(=O)CNC(=O)[C@H](Cc2c[nH]c3ccccc23)NC(=O)[C@H](CCC(N)=O)NC(=O)[C@@H]2CSCCC(=O)N3CN(CN(C3)C(=O)CCSC[C@@H](C(=O)N[C@@H](C)C(=O)N[C@@H](CCCCNC(=O)CCc3cn(CCOCCOCCOCCN(CCOCCOCCOCCC(=O)N[C@@H](C)C(=O)N[C@@H](CCCCNC(=N)N)C(=O)N[C@@H](CC(=O)O)C(=O)N[C@H]4CSCCC(=O)N5CN6CN(C5)C(=O)CCSC[C@H](NC(=O)[C@H](CC(C)C)NC(=O)[C@@H]5CCCN5C(=O)[C@H](CC(N)=O)NC(=O)[C@H](C(C)C)NC(=O)[C@H](CC(C)C)NC(=O)[C@@H]5C[C@@H](O)CN5C4=O)C(=O)N[C@@H](CC(C)C)C(=O)N[C@@H](Cc4c[nH]cn4)C(=O)N4CCC[C@H]4C(=O)N[C@H](CC(=O)O)C(=O)N[C@@H](Cc4c[nH]c5ccccc45)C(=O)N[C@@H](CCCCNC(=N)N)C(=O)N[C@H](C(N)=O)CSCCC6=O)CCOCCOCCOCCn4cc(CCC(=O)NCCCC[C@H](NC(=O)[C@H](C)NC(=O)[C@@H]5CSCCC(=O)N6CN7CN(C6)C(=O)CCSC[C@H](NC(=O)[C@H](CC(N)=O)NC(=O)[C@H](Cc6c[nH]cn6)NC(=O)[C@H]([C@@H](C)O)NC(=O)[C@H]([C@@H](C)O)NC(=O)[C@H](CC(C)C)NC(=O)[C@H](CC(=O)O)NC(=O)[C@@H](NC(=O)[C@H](C)N)CSCCC7=O)C(=O)N[C@@H](CCC(N)=O)C(=O)N[C@@H](Cc6c[nH]c7ccccc67)C(=O)NCC(=O)N[C@@H]([C@@H](C)CC)C(=O)N5)C(N)=O)nn4)nn3)C(N)=O)NC1=O)C(=O)CCSC[C@H](NC(=O)[C@H](C)N)C(=O)N[C@@H](CC(=O)O)C(=O)N[C@@H](CC(C)C)C(=O)N[C@@H]([C@@H](C)O)C(=O)N[C@@H]([C@@H](C)O)C(=O)N[C@@H](Cc1c[nH]cn1)C(=O)N[C@@H](CC(N)=O)C(=O)N2 [BCY15923],dose-dependent NK cell response to kill,0.044,,
CC(=O)N[C@H]1CSCCC(=O)N2CN3CN(C2)C(=O)CCSC[C@H](NC(=O)[C@H](CC(C)C)NC(=O)[C@H](Cc2ccc(O)cc2)NC(=O)[C@H](CC(=O)O)NC(=O)[C@@H]2CCCN2C(=O)[C@H](CC2CCC2)NC(=O)[C@H](Cc2ccc(O)cc2)NC1=O)C(=O)N[C@H](C)C(=O)N[C@@H](CC(=O)O)C(=O)N[C@@H](CCC(=O)O)C(=O)N[C@@H](Cc1ccc(O)cc1)C(=O)N[C@H](C(=O)N[C@@H](CCCCNC(=O)CCc1cn(CCOCCOCCOCCN(CCOCCOCCOCCC(=O)N[C@@H](CC(C)C)C(=O)N2CCC[C@H]2C(=O)N2CCC[C@H]2C(=O)N[C@H]2CSCCC(=O)N4CN5CN(C4)C(=O)CCSC[C@H](NC(=O)[C@H](CCC(=O)O)NC(=O)[C@H](CCCCNC(=N)N)NC(=O)[C@H](C(C)C)NC2=O)C(=O)N[C@@H](C)C(=O)N[C@@H](CC(C)(C)C)C(=O)N[C@@H](CC(C)C)C(=O)N[C@@H](Cc2ccccc2)C(=O)N2CCC[C@H]2C(=O)N[C@@H](CCCCNC(=N)N)C(=O)N[C@@H]([C@@H](C)O)C(=O)N[C@H](C(N)=O)CSCCC5=O)CCOCCOCCOCCn2cc(CCC(=O)NCCCC[C@H](NC(=O)[C@@H]4CSCCC(=O)N5CN6CN(C5)C(=O)CCSC[C@H](NC(=O)[C@H](CC(C)C)NC(=O)[C@H](Cc5ccc(O)cc5)NC(=O)[C@H](CC(=O)O)NC(=O)[C@@H]5CCCN5C(=O)[C@H](CC5CCC5)NC(=O)[C@H](Cc5ccc(O)cc5)NC(=O)[C@@H](NC(C)=O)CSCCC6=O)C(=O)N[C@H](C)C(=O)N[C@@H](CC(=O)O)C(=O)N[C@@H](CCC(=O)O)C(=O)N[C@@H](Cc5ccc(O)cc5)C(=O)N4)C(N)=O)nn2)nn1)C(N)=O)CSCCC3=O [BCY18604],enhanced NK cytotoxicity,0.0079,,
"CC(=O)N[C@H]1CSCCC(=O)N2CN3CN(C2)C(=O)CCSC[C@H](NC(=O)[C@H](CC(C)C)NC(=O)[C@H](Cc2ccc(O)cc2)NC(=O)[C@H](CC(=O)O)NC(=O)[C@@H]2CCCN2C(=O)[C@H](CC2CCC2)NC(=O)[C@H](Cc2ccc(O)cc2)NC1=O)C(=O)N[C@H](C)C(=O)N[C@@H](CC(=O)O)C(=O)N[C@@H](CCC(=O)O)C(=O)N[C@@H](Cc1ccc(O)cc1)C(=O)N[C@H](C(=O)N[C@@H](CCCCNC(=O)CCc1cn(CCOCCOCCOCCOCCOCCOCCOCCOCCOCCOCCOCCOCCOCCOCCOCCOCCOCCOCCOCCOCCOCCOCCOCCOCCC(=O)N[C@@H](C)C(=O)N[C@@H](CCCCNC(=N)N)C(=O)N[C@@H](CC(=O)O)C(=O)N[C@H]2CSCCC(=O)N4CN5CN(C4)C(=O)CCSC[C@H](NC(=O)[C@H](CC(C)C)NC(=O)[C@@H]4CCCN4C(=O)[C@H](CC(N)=O)NC(=O)[C@H](C(C)C)NC(=O)[C@H](CC(C)C)NC(=O)[C@@H]4C[C@@H](O)CN4C2=O)C(=O)N[C@@H](CC(C)C)C(=O)N[C@@H](Cc2c[nH]cn2)C(=O)N2CCC[C@H]2C(=O)N[C@H](CC(=O)O)C(=O)N[C@@H](Cc2c[nH]c4ccccc24)C(=O)N[C@@H](CCCCNC(=N)N)C(=O)N[C@H](C(N)=O)CSCCC5=O)nn1)C(N)=O)CSCCC3=O [BCY18731] (I: A[hArg]DC[Hyp]LVNPLCLHP[dD]W[hArg]C-NH2 / II: Ac-CY[Cba]PDYLC[dA]DEYCK-NH2; linker I:4-I:11-I:18, II:1-II:8-II:13 via TATA; linker I:N-II:14 via X3; C-terminus assumed)",,0.018,,
"BCY17235: EphA2 peptide BCY9594 linked to NKp46 peptide (BCY17224) and CD16a peptide (BCY13883) via a TCA-[Peg23]3 linker (peptide 1 A[hArg]DC[Hyp]LVNPLCLHP[dD]W[hArg]C; peptide 2 Ac-CY[Cba]PDYLC[dA]DEYCK(Pent4ynoyl); peptide 3 ACRWSVEDPCGAWCAK(Pent4ynoyl); linker I:4-I:11-I:18, II:1-II:8-II:13 via TATA; linker III:2-III:10-III:14 via TBMT; also: chain 1 N-terminus and the K(PYA) of chains 2 and 3 joined through TCA-[Peg23]3 linker)","enhanced, dose-dependent effect on tumor cell killing",,0.014,
"I: A[hArg]DC[Hyp]LVNPLCLHP[dD]W[hArg]C-NH2 / II: ACNLQAPCMQTGKVCAK-NH2 / III: ACNLQAPCMQTGKVCAK-NH2 (linker I:4-I:11-I:18, II:2-II:8-II:15, III:2-III:8-III:15 via TATA; linker I:N-II:17-III:17 via X1; C-terminus assumed) [BCY15924]",enhanced NK cytotoxicity,,,0.5
"I: A[hArg]DC[Hyp]LVNPLCLHP[dD]W[hArg]C-NH2 / II: Ac-CY[Cba]PDYLC[dA]DEYCK-NH2 / III: Ac-CY[Cba]PDYLC[dA]DEYCK-NH2 (linker I:4-I:11-I:18, II:1-II:8-II:13, III:1-III:8-III:13 via TATA; linker I:N-II:14-III:14 via X1; C-terminus assumed) [BCY17226]",dose-dependent NK cell response to kill,0.0061,,
"I: Ac-D[hArg]CSAGWLTMCQKLHLCPSH-NH2 / II: Ac-CY[Cba]PDYLC[dA]DEYCK-NH2 / III: Ac-CY[Cba]PDYLC[dA]DEYCK-NH2 (linker I:3-I:11-I:17, II:1-II:8-II:13, III:1-III:8-III:13 via TATA; linker I:13-II:14-III:14 via X1; C-terminus assumed) [BCY18603]",enhanced NK cytotoxicity,0.003,,
